According to the NIST ThermoML archive (doi:10.1021/je034048e):
± gives the expanded uncertainty stated by the source.

Tests used:
[1] = for molar entropy: 101.33 kPa, Small (less than 1 g) adiabatic calorimetry
[2] = Molar enthalpy of transition or fusion; conditions: Crystal; Adiabatic calorimetry

CCCCCCCC/C=C/CCCCCCCC(=O)OCC(COC(=O)CCCCCCC/C=C/CCCCCCCC)OC(=O)CCCCCCC/C=C/CCCCCCCC [trielaidin]
[1]
Conditions | Triple point temperature [K] | molar entropy [J/K/mol]
20 K, Crystal | – | 26.56 ± 8.9
20 K, Metastable crystal | – | 61.98 ± 8.9
25 K, Crystal | – | 44.27 ± 8.9
25 K, Metastable crystal | – | 88.54 ± 8.9
30 K, Crystal | – | 70.83 ± 8.9
30 K, Metastable crystal | – | 115.11 ± 8.9
35 K, Crystal | – | 97.4 ± 8.9
35 K, Metastable crystal | – | 141.67 ± 8.9
40 K, Crystal | – | 132.81 ± 8.9
40 K, Metastable crystal | – | 177.09 ± 8.9
45 K, Crystal | – | 168.23 ± 8.9
45 K, Metastable crystal | – | 212.5 ± 8.9
50 K, Crystal | – | 194.8 ± 8.9
50 K, Metastable crystal | – | 239.07 ± 8.9
55 K, Crystal | – | 230.21 ± 8.9
55 K, Metastable crystal | – | 274.48 ± 8.9
60 K, Crystal | – | 265.63 ± 8.9
60 K, Metastable crystal | – | 309.9 ± 8.9
65 K, Crystal | – | 301.05 ± 8.9
65 K, Metastable crystal | – | 345.32 ± 8.9
70 K, Crystal | – | 327.61 ± 8.9
70 K, Metastable crystal | – | 380.74 ± 8.9
75 K, Crystal | – | 363.03 ± 8.9
75 K, Metastable crystal | – | 416.15 ± 18
80 K, Crystal | – | 398.44 ± 8.9
80 K, Metastable crystal | – | 451.57 ± 18
85 K, Crystal | – | 433.86 ± 18
85 K, Metastable crystal | – | 486.99 ± 18
90 K, Crystal | – | 460.42 ± 18
90 K, Metastable crystal | – | 513.55 ± 18
95 K, Crystal | – | 495.84 ± 18
95 K, Metastable crystal | – | 548.97 ± 18
100 K, Crystal | – | 531.26 ± 18
100 K, Metastable crystal | – | 584.39 ± 18
105 K, Crystal | – | 557.82 ± 18
105 K, Metastable crystal | – | 619.8 ± 18
110 K, Crystal | – | 593.24 ± 18
110 K, Metastable crystal | – | 646.37 ± 18
120 K, Crystal | – | 646.37 ± 18
120 K, Metastable crystal | – | 708.35 ± 18
130 K, Crystal | – | 708.35 ± 18
130 K, Metastable crystal | – | 770.33 ± 27
140 K, Crystal | – | 770.33 ± 27
140 K, Metastable crystal | – | 832.31 ± 27
150 K, Crystal | – | 823.45 ± 27
150 K, Metastable crystal | – | 894.29 ± 27
160 K, Crystal | – | 876.58 ± 27
160 K, Metastable crystal | – | 947.41 ± 27
170 K, Crystal | – | 929.7 ± 27
170 K, Metastable crystal | – | 1009.4 ± 35
180 K, Crystal | – | 982.83 ± 27
180 K, Metastable crystal | – | 1062.5 ± 35
190 K, Crystal | – | 1036 ± 35
190 K, Metastable crystal | – | 1124.5 ± 35
200 K, Crystal | – | 1089.1 ± 35
200 K, Metastable crystal | – | 1177.6 ± 35
210 K, Crystal | – | 1142.2 ± 35
210 K, Metastable crystal | – | 1239.6 ± 35
220 K, Crystal | – | 1186.5 ± 35
220 K, Metastable crystal | – | 1301.6 ± 35
230 K, Crystal | – | 1239.6 ± 35
230 K, Metastable crystal | – | 1363.6 ± 44
240 K, Crystal | – | 1292.7 ± 35
240 K, Metastable crystal | – | 1425.5 ± 44
250 K, Crystal | – | 1337 ± 44
250 K, Metastable crystal | – | 1487.5 ± 44
260 K, Crystal | – | 1390.1 ± 44
260 K, Metastable crystal | – | 1549.5 ± 44
270 K, Crystal | – | 1443.3 ± 44
270 K, Metastable crystal | – | 1611.5 ± 53
280 K, Crystal | – | 1496.4 ± 44
280 K, Metastable crystal | – | 1673.5 ± 53
288 K, Crystal | – | 1531.8 ± 44
288 K, Metastable crystal | – | 1726.6 ± 53
290 K, Crystal | – | 1549.5 ± 44
298.15 K, Crystal | – | 1593.8 ± 44
300 K, Crystal | – | 1602.6 ± 53
310 K, Crystal | – | 1655.8 ± 53
314.83 K, Crystal | – | 1673.5 ± 53
314.83 K, Liquid | – | 2204.7 ± 71
320 K, Liquid | – | 2213.6 ± 71
330 K, Liquid | – | 2275.6 ± 71
Crystal, Adiabatic calorimetry | 314.83 ± 1 | –

Conditions | Molar enthalpy of transition or fusion [kJ/mol]
[2] | 157 ± 3.2
